# According to patent US20230118577A1, “NEUROACTIVE STEROIDS AND PHARMACEUTICAL COMPOSITION CONTAINING THE SAME” (Brii Biosciences, Inc., priority 2020, published 2023):
# Read-outs that look alike come from different tables or passages of the source.
# What was measured:
# GABAA α4β3δ = target: T1, GABAA α4β3δ (Homo sapiens, UniProt P28472+P48169); assay: Automated patch clamp electrophysiology (SyncroPatch), PAM mode, GABAA α4β3δ cell line; type: cell-based; settings: for Emax: maximum fold increase in current relative to Allopregnanolone, read-out: GABAA α4β3δ PAM % Emax (to Allo)
# T1 construct: expressed in transfected cells; host or cells: HEK293 expressing the Tetracycline repressor protein
# T1 sequence (P48169 36-554): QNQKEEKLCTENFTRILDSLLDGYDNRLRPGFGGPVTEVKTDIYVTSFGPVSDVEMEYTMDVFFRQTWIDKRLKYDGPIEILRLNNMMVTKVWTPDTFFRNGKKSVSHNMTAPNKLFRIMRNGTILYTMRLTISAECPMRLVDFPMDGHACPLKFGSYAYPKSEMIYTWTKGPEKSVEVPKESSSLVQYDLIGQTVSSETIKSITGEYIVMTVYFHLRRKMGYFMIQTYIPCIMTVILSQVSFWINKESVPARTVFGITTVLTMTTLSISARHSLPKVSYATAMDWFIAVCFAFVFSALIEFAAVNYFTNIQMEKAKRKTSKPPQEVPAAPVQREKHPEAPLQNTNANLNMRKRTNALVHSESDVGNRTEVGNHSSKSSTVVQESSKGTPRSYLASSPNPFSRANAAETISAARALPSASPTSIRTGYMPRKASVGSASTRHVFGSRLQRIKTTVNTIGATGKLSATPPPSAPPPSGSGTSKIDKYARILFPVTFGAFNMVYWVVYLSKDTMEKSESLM
# T1 sequence (P28472 26-473): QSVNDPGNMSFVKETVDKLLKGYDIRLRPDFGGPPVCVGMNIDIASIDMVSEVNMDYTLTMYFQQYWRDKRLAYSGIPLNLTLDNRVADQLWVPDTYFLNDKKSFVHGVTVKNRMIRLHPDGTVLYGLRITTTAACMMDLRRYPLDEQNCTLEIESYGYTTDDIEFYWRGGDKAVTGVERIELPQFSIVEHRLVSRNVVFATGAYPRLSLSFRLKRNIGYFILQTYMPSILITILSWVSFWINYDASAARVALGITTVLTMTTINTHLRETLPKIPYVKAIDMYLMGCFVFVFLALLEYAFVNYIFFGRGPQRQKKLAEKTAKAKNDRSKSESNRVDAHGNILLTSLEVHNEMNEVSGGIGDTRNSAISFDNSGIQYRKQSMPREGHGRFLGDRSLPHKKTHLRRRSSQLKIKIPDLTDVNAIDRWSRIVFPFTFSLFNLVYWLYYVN
# T1 sequence (O14764 17-452 partner limits assumed): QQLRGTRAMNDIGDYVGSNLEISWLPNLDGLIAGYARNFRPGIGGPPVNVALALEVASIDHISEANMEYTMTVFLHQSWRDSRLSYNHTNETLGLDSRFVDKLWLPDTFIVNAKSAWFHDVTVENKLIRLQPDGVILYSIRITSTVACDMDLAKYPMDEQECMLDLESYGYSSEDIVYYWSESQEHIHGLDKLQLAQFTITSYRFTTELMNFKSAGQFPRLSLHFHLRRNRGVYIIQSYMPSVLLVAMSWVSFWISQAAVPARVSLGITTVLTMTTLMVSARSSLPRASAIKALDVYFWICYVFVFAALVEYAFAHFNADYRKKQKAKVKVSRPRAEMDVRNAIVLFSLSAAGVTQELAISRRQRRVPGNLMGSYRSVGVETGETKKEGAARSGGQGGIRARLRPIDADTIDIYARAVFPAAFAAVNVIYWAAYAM
# Source text: (§1) Cellular electrophysiology was used to measure the pharmacology properties of the GABA receptor modulators. The GABAA channels are expressed in stable cell lines described herein. The parental cell line used to express the human GABAA channels is the human embryonic kidney (HEK293) cell line expressing the Tetracycline repressor protein to support inducible expression of the target proteins.
# (§2) For the GABAA α4β3δ cell line, the α4 and β3 subunits are under control of tetracycline inducible expression system, while the δ subunit is constitutively expressed. For the GABAA α1β2γ2 cell line, the α1 and β2 subunits are under control of tetracycline inducible expression system, whist the γ2 subunit is constitutively expressed.
# (§3) Assessment of the compounds against GABAA α1β2γ2 and GABAA α4β3δ was performed using the SyncroPatch automated platform in positive allosteric modulator (PAM) mode. Six concentrations of 20 nM, 62 nM, 185 nM, 555 nM, 1667 nM and 5000 nM were tested across the plate, with a single concentration of compound per well. A minimum of 3 cells were obtained per each concentration of a compound.
# (§4) Automated patch clamp-recordings were performed using the SyncroPatch 384PE. The voltage protocol generation and data collection were performed with PatchController384 V1.6.6 and Data Controller V1.6.0. A steady state voltage pulse at −80 mV was applied during the assay.
# (§5) The stacked addition protocol was used, in which γ-aminobutyric acid (GABA) was rapidly applied and then washed off from the cell. To test for positive allosteric modulator activity (PAM), first the agonist GABA EC20 (EC20: 10 μM for GABAA α4β3δ channel and 14 μM GABA for the GABAA α1β2γ2 channel) was applied twice (with wash steps in-between) as a control and to show activation reproducibility, followed by a 1-2 minutes pre-incubation of the tested compound and then re-application of GABA EC20 in the presence of a testing compound. Finally, following a further wash step, maximum GABA (10 mM) was applied.
# (§6) An Allopregnanolone concentration response was tested as the control PAM on the compound plates. The fold increase was generated using the following equation, (Icomp/Icontrol)−1, where Icomp is the current amplitude in the presence of the compound and Icontrol is the current amplitude in the presence of GABA EC20 alone. This builds an EC50 concentration-response curve, where 0 represents no PAM activity and >0 represents PAM activity.
# (§7) A maximum % Emax for each compound is generated using the following equation, (IMaxComp/IAveMaxAllo)*100, where IMaxcomp is the individual maximum fold increase in current for each compound and IAveMaxAllo is the average maximum fold increase generated in the presence of Allopregnanolone. The resultant % Emax values are then averaged. The compound and Allopregnanolone values were obtained from separate cells which were tested in the same compound run. Two GABAA subtypes were tested against each of the compounds as well as the positive control, Allopregnanolone.
# GABAA α1β2γ2 = target: T2, GABAA α1β2γ2 (Homo sapiens, UniProt P14867+P47870); assay: Automated patch clamp electrophysiology (SyncroPatch), PAM mode, GABAA α1β2γ2 cell line; type: cell-based; settings: for Emax: maximum fold increase in current relative to Allopregnanolone, GABA EC20 14 μM, read-out: GABAA α1β2γ2 PAM % Emax (to Allo)
# T2 construct: expressed in transfected cells; host or cells: HEK293 expressing the Tetracycline repressor protein
# T2 sequence (P14867 28-456): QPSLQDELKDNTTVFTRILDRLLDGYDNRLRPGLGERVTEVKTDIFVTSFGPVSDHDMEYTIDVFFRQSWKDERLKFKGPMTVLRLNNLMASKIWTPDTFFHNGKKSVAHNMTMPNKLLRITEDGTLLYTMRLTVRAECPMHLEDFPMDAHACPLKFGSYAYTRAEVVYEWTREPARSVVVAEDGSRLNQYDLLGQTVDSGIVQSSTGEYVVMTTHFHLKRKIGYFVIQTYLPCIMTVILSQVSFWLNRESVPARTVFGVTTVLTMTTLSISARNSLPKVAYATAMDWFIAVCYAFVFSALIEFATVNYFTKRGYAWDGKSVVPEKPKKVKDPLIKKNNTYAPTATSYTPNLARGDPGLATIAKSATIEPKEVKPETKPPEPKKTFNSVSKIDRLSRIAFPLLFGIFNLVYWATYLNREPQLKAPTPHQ
# T2 sequence (P47870 25-512 limits assumed): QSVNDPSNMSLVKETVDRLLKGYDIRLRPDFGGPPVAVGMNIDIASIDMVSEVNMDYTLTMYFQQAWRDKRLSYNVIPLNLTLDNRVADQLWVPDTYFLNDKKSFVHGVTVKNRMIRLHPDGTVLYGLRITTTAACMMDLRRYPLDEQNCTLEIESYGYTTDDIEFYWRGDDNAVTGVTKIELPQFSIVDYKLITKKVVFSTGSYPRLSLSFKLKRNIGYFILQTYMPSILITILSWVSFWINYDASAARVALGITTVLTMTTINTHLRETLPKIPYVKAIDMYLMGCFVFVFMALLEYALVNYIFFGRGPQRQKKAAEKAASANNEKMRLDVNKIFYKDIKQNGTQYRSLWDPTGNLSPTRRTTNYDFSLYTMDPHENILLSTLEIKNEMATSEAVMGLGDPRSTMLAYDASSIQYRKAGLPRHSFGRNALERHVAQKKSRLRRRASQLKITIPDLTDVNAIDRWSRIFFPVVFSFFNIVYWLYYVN
# T2 sequence (P18507 40-475 partner): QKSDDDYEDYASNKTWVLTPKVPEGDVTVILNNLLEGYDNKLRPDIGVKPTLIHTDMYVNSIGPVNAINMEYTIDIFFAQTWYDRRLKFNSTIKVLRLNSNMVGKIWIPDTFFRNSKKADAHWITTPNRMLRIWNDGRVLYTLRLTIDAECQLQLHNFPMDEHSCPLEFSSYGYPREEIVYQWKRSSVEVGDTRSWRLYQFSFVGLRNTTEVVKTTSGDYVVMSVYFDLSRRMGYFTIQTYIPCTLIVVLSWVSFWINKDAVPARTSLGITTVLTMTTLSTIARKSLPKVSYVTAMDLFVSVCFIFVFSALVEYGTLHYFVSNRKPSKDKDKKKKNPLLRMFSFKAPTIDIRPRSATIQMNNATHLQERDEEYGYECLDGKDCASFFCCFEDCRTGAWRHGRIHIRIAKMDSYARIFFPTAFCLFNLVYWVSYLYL
# Source text: as §1, §2, §3, §4, §5, §6, §7
# [1] = PAM mode, HEK293 cells expressing human GABAA α4β3δ, GABA EC20 10 μM, read-out: GABAA α4β3δ PAM EC50
# [2] = PAM mode, HEK293 cells expressing human GABAA α1β2γ2, GABA EC20 14 μM, read-out: GABAA α1β2γ2 PAM EC50
Structure (SMILES),EC50 (GABAA α4β3δ; [1]),"Emax (GABAA α4β3δ; PAM mode, GABA EC20 10 μM)",EC50 (GABAA α1β2γ2; [2]),Emax (GABAA α1β2γ2; PAM mode),EC50 (GABAA α4β3δ),EC50 (GABAA α1β2γ2)
"C[C@@]1(O)CC[C@H]2[C@H](CC[C@@H]3[C@@H]2CC[C@]2(C)[C@@H](C4(CC#N)COC4)CC[C@@H]32)C1 [Example 13, 2-[3-[(3R,5R,8R,9R,10S,13S,14S,17S)-3-hydroxy-3,13-dimethyl-2,4,5,6,7,8,9,10,11,12,14,15,16,17-tetradecahydro-1H-cyclopenta[a]phenanthren-17-yl]oxetan-3-yl]acetonitrile]",1 to 1.5 µM,< 50%,1 to 1.5 µM,> 90%,,
"C[C@@]1(O)CC[C@H]2[C@H](CC[C@@H]3[C@@H]2CC[C@]2(C)[C@@H](C4(C(F)F)COC4)CC[C@@H]32)C1 [Example 19, (3R,5R,8R,9R,10S,13S,14S,17S)-17-[3-(difluoromethyl)oxetan-3-yl]-3,13-dimethyl-2,4,5,6,7,8,9,10,11,12,14,15,16,17-tetradecahydro-1H-cyclopenta[a]phenanthren-3-ol]",< 0.5 µM,> 90%,< 0.5 µM,> 90%,,
"C[C@@]1(O)CC[C@H]2[C@H](CC[C@@H]3[C@@H]2CC[C@]2(C)[C@@H](C4(CC(F)(F)F)COC4)CC[C@@H]32)C1 [Example 20, (3R,5R,8R,9R,10S,13S,14S,17S)-3,13-dimethyl-17-(3-(2,2,2-trifluoroethyl)oxetan-3-yl)-2,4,5,6,7,8,9,10,11,12,14,15,16,17-tetradecahydro-1H-cyclopenta[a]phenanthren-3-ol]",< 0.5 µM,> 90%,< 0.5 µM,> 90%,,
"C[C@@]1(O)CC[C@H]2[C@H](CC[C@@H]3[C@@H]2CC[C@]2(C)[C@@H](C4(F)COC4)CC[C@@H]32)C1 [Example 10, (3R,5R,8R,9R,10S,13S,14S,17S)-17-(3-fluorooxetan-3-yl)-3,13-dimethyl-2,4,5,6,7,8,9,10,11,12,14,15,16,17-tetradecahydro-1H-cyclopenta[a]phenanthren-3-ol]",< 0.5 µM,> 90%,< 0.5 µM,> 90%,,
"C[C@@]1(O)CC[C@H]2[C@H](CC[C@@H]3[C@@H]2CC[C@]2(C)[C@@H](C4(C5CC5)COC4)CC[C@@H]32)C1 [Example 21, (3R,5R,8R,9R,10S,13S,14S,17S)-17-(3-cyclopropyloxetan-3-yl)-3,13-dimethyl-2,4,5,6,7,8,9,10,11,12,14,15,16,17-tetradecahydro-1H-cyclopenta[a]phenanthren-3-ol]",> 1.5 µM,> 90%,0.5 to 1 µM,> 90%,,
"CC1([C@H]2CC[C@H]3[C@@H]4CC[C@H]5C[C@H](O)CC[C@]5(C)[C@H]4CC[C@]23C)COC1 [Example 5, (3R,5S,8R,9S,10S,13S,14S,17S)-10,13-dimethyl-17-(3-methyloxetan-3-yl)-2,3,4,5,6,7,8,9,11,12,14,15,16,17-tetradecahydro-1H-cyclopenta[a]phenanthren-3-ol]",> 1.5 µM,< 50%,0.5 to 1 µM,50 to 90%,,
"C[C@@]1(O)CC[C@H]2[C@H](CC[C@@H]3[C@@H]2CC[C@]2(C)[C@@H](C4(C#N)COC4)CC[C@@H]32)C1 [Example 18, 3-((3R,5R,8R,9R,10S,13S,14S,17S)-3-hydroxy-3,13-dimethyl-2,4,5,6,7,8,9,10,11,12,14,15,16,17-tetradecahydro-1H-cyclopenta[a]phenanthren-17-yl)oxetane-3-carbonitrile]",< 0.5 µM,50 to 90%,< 0.5 µM,> 90%,,
"CC1([C@H]2CC[C@H]3[C@@H]4CC[C@@H]5C[C@](C)(O)CC[C@@H]5[C@H]4CC[C@]23C)CCOC1 (stereo partly drawn) [Example 7, (3R,5R,8R,9R,10S,13S,14S,17S)-3,13-dimethyl-17-(3-methyltetrahydrofuran-3-yl)-2,4,5,6,7,8,9,10,11,12,14,15,16,17-tetradecahydro-1H-cyclopenta[a]phenanthren-3-ol]",0.5 to 1 µM,> 90%,0.5 to 1 µM,> 90%,,
"CC1([C@H]2CC[C@H]3[C@@H]4CC[C@H]5C[C@H](O)CC[C@]5(C)[C@H]4CC[C@]23C)CCO1 (stereo partly drawn) [Example 3, (3R,5S,8R,9S,10S,13S,14S,17S)-10,13-dimethyl-17-(2-methyloxetan-2-yl)-2,3,4,5,6,7,8,9,11,12,14,15,16,17-tetradecahydro-1H-cyclopenta[a]phenanthren-3-ol]",1 to 1.5 µM,< 50%,1 to 1.5 µM,< 50%,,
"CC1([C@H]2CC[C@H]3[C@@H]4CC[C@H]5C[C@](C)(O)CC[C@]5(C)[C@H]4CC[C@]23C)COC1 [Example 1, (3R,5S,8R,9S,10S,13S,14S,17S)-3,10,13-trimethyl-17-(3-methyloxetan-3-yl)-1,2,4,5,6,7,8,9,11,12,14,15,16,17-tetradecahydrocyclopenta[a]phenanthren-3-ol]",> 1.5 µM,< 50%,0.5 to 1 µM,< 50%,,
"C[C@@]1(O)CC[C@H]2[C@H](CC[C@@H]3[C@@H]2CC[C@]2(C)[C@@H](C4(CF)COC4)CC[C@@H]32)C1 [Example 14, (3R,5R,8R,9R,10S,13S,14S,17S)-17-[3-(fluoromethyl)oxetan-3-yl]-3,13-dimethyl-2,4,5,6,7,8,9,10,11,12,14,15,16,17-tetradecahydro-1H-cyclopenta[a]phenanthren-3-ol]",0.5 to 1 µM,50 to 90%,1 to 1.5 µM,> 90%,,
"CC(=O)[C@H]1CC[C@H]2[C@@H]3CC[C@H]4C[C@H](O)CC[C@]4(C)[C@H]3CC[C@]12C [allopregnanolone, 5α-pregnane-3α-ol-20-one, reference compound]",,> 90%,,> 90%,< 0.5 µM,< 0.5 µM
"C[C@@]1(O)CC[C@H]2[C@H](CC[C@@H]3[C@@H]2CC[C@]2(C)[C@@H](C4COC4)CC[C@@H]32)C1 [Example 23, (3R,5R,8R,9R,10S,13S,14S,17R)-17-(oxetan-3-yl)-3,13-dimethyl-2,4,5,6,7,8,9,10,11,12,14,15,16,17-tetradecahydro-1H-cyclopenta[a]phenanthren-3-ol]",< 0.5 µM,50 to 90%,< 0.5 µM,50 to 90%,,
"C[C@@]1(O)CC[C@H]2[C@H](CC[C@@H]3[C@@H]2CC[C@]2(C)[C@@H](C4(Cn5cc(C#N)cn5)COC4)CC[C@@H]32)C1 [Example 15, 1-[[3-[(3R,5R,8R,9R,10S,13S,14S,17S)-3-hydroxy-3,13-dimethyl-2,4,5,6,7,8,9,10,11,12,14,15,16,17-tetradecahydro-1H-cyclopenta[a]phenanthren-17-yl]oxetan-3-yl]methyl]pyrazole-4-carbonitrile]",> 1.5 µM,> 90%,< 0.5 µM,> 90%,,
"C[C@@]1(O)CC[C@H]2[C@H](CC[C@@H]3[C@@H]2CC[C@]2(C)[C@@H](C4(CC5CC5)COC4)CC[C@@H]32)C1 [Example 9, (3R,5R,8R,9R,10S,13S,14S,17S)-17-[3-(cyclopropylmethyl)oxetan-3-yl]-3,13-dimethyl-2,4,5,6,7,8,9,10,11,12,14,15,16,17-tetradecahydro-1H-cyclopenta[a]phenanthren-3-ol]",> 1.5 µM,> 90%,< 0.5 µM,50 to 90%,,
